Blank lines part the entries; values can stand above or below the compound they belong to.
Columns and labels:
[1] = system: CaM kinase II; assay: Autonomous CaM kinase II activity in neonatal rat heart tissue slices; assay type: biochemical; conditions: for CaMKII autonomous activation, increase over unstimulated heart tissues: 30 seconds after treatment, DOB 10 μM, ISO 100 μM
Procedure: FIG. 9 is a bar graph depicting stimulation of CaMKII activity by b1-adrenergic receptor in neonate rat heart tissue. Neonatal (1-4 day old) heart tissue slices were isolated and treated with isoproterenol (ISO, 100 μM), dolbutamine (DOB, 10 μM), or vehicle alone (control). Propanolol (PROP, 20 μM) was added 2 minutes before agonists were added. After 30 seconds of treatment, autonomous CaMKII activity was assayed. Data are shown as percentage of the ratio of calcium independent activity divided by total activity and represented as the mean±SD from at least three experiments.
Determination of autonomous CaM kinase II activity. CaM kinase II autonomous activity was determined in rat heart tissue homogenates using the synthetic peptide substrate, autocamtide-2 (KKALRRQETVDAL) (Mar et al. (1990) Mol. Cell. Biol. 10:4271-4283; and Farrance et al. (1992) J. Biol. Chem. 267:17234-17240) as exogenous substrate. […] Autonomous CaM kinase II activity was assayed by the phosphorylation of autocamtide-2 in the absence of Ca^2+/calmodulin and expressed as a proportion of activity obtained in the presence of these cofactors. Tissue slices were incubated in the presence or absence of various drug compounds for required time. At termination of the incubation the tissue slices were homogenized in ice-cold buffer (20 mM Tris-HCl, pH 7.5, 0.5 mM EGTA, 1.0 mM EDTA, 2.0 mM dithiothreitol, 10 mM sodium pyrophosphate, 0.4 mM ammonium molybdate, […]) by sonication. Supernatant were cleared by centrifugation (12,000×g, 2 minutes) and then assayed in a reaction mixture containing 50 mM PIPES (pH 7.0), 10 mM MgCl2 0.1 mg/ml bovine serum albumin, […], 20 mM [γ-^32P] […] Endogenous protein was sedimented by centrifugation and supernatants containing autocamtide-2 were spotted onto p81 phosphocellulose strips, washed 5 times, dried and ^32P-PO4 content was quantitated by Cerenkov radiation.
These experiments determined whether signaling through β1-adrenergic receptor subtype could activate cardiac CaMKII. […]

[2] = system: cardiac α-actin promoter; assay: Cardiac α-actin promoter-reporter (luciferase) activity in transfected cardiomyocytes exposed to agonists; assay type: cell-based, rat; conditions: for induction of cardiac α-actin promoter-reporter activity over control cells: PE 100 μM, TGF-β1 1 ng/ml
Procedure: (§1) FIG. 10 presents data showing the effects of adrenoceptor agonists on promoter-reporter activities for ANF, skeletal a-actin and cardiac a-actin, and a time course of effects of DOB on ANF message levels. FIGS. 10A, B, and C are bar graphs showing luciferase reporter levels after transfection of ANF, skeletal α-actin, and cardiac a-actin, respectively, into ventricular myocardial cells, and treatment, 24 hours after transfection, with PE (100 μM), DOB (10 μM), or TGF-β1 (1 ng/ml). Values are corrected for transfection efficiency and reported as the mean±SD from at least three experiments. FIG. 10D. Ventricular myocardial cells were switched to serum-free medium. DOB was added to the medium at various time points. “Control” represents cells treated with the DOB vehicle. 24 hours after incubation, total RNA was extracted and analyzed by Northern blot. Results are representative of n=3 or greater for each time point.
Transient transfection. It was necessary to culture the isolated cardiomyocytes in serum-free medium to eliminate effects on gene expression mediated through serum response elements. Primary myocardial cultures were first washed with serum-free growth medium and then maintained in serum-free Medium 199 supplemented with Nutridoma HU (Boehringer Mannheim Corporation, Indianapolis, Ind.) which contained human serum albumin, bovine insulin and human transferrin. Transfection were carried out by using a liposome-based transfecting agent, Lipofectamine (Life Technologies, Grand Island, N.Y.). The procedures used for transient transfection were followed as the manufacturer's instructions. The optimal values including DNA concentration, lipofectamine concentration, and time length for tansfection were determined prior to experiments carried out in this study. […]
(§2) For α1-adrenergic stimulation, 100 μM PE (Sigma, St. Louis, Mo.) was added to the cells. […] Chemiluminescent β-galactosidase activity was assayed by using an aliquot of the same cell lysates collected for the luciferase assay and measured in the same luminometer as described below. […]

[3] = system: ANF mRNA; assay: ANF message level by Northern analysis in neonatal cardiocytes; assay type: cell-based, rat
Procedure: FIG. 10 presents data showing the effects of adrenoceptor agonists on promoter-reporter activities for ANF, skeletal a-actin and cardiac a-actin, and a time course of effects of DOB on ANF message levels. FIGS. 10A, B, and C are bar graphs showing luciferase reporter levels after transfection of ANF, skeletal α-actin, and cardiac a-actin, respectively, into ventricular myocardial cells, and treatment, 24 hours after transfection, with PE (100 μM), DOB (10 μM), or TGF-β1 (1 ng/ml). Values are corrected for transfection efficiency and reported as the mean±SD from at least three experiments. FIG. 10D. Ventricular myocardial cells were switched to serum-free medium. […] 24 hours after incubation, total RNA was extracted and analyzed by Northern blot. […]
Northern Analysis. […] After washing at high stringency (0.1×SSPE, 0.1% SDS, 65° C.), hybridized biotinylated cDNA were detected by using Chemiluminescent Detection System (TROPIX, Inc., Bedford, Mass.) and then exposed to X-ray film. The ANF bands were quantitated with a Howteck gel scanner (PDI, Huntington station, N.Y.) and normalized to the 28 S rRNA signal to correct for loading and/or transfer efficiencies.
Primary cultures of neonatal cardiocytes were kept in serum-free medium and β1 agonist, DOB, was applied to the cells at various times. ANF message RNA was evaluated in the end by northern analysis protocols as described above. […]

[4] = system: ANF promoter; assay: ANF promoter-reporter (luciferase) activity in transfected cardiomyocytes exposed to agonists; assay type: cell-based, rat
Procedure: as §1
Transient transfection. It was necessary to culture the isolated cardiomyocytes in serum-free medium to eliminate effects on gene expression mediated through serum response elements. Primary myocardial cultures were first washed with serum-free growth medium and then maintained in serum-free Medium 199 supplemented with Nutridoma HU (Boehringer Mannheim Corporation, Indianapolis, Ind.) which contained human serum albumin, bovine insulin and human transferrin. Transfection were carried out by using a liposome-based transfecting agent, Lipofectamine (Life Technologies, Grand Island, N.Y.). The procedures used for transient transfection were followed as the manufacturer's instructions. The optimal values including DNA concentration, lipofectamine concentration, and time length for tansfection were determined prior to experiments carried out in this study. Briefly, for each transfection, 2 μg DNA and 20 μg lipofectamine were diluted into separate vials containing 300 μl serum-free nutridoma supplemented medium. The two solutions were then combined and incubated at room temperature for 15-45 minutes to allow DNA-liposome complexes to form. For each transfection, 2.4 ml of serum-free nutridoma supplemented medium were added to the tube containing the DNA-liposome complexes and the diluted mixture was overlaid onto the adherent cardiomyocytes that had been rinsed once with 2 ml of serum-free medium in a 60-mm tissue culture plate. The cell cultures were incubated at 37° C. in a C02 incubator containing 5% CO2 for 24 hours, at which time various test compounds were added. Promoter activities from cell extracts were assayed within 48 hours following the start of transfection.
For α1-adrenergic stimulation, 100 μM PE (Sigma, St. Louis, Mo.) was added to the cells. DOB (Gensia Laboratories, Ltd., Irving, Calif.), a selective β1-adrenergic agonist, was added at a concentration of 10 μM. To correct for variation in transfection efficiencies, pβGal-Control was used as an internal control. Chemiluminescent β-galactosidase activity was assayed by using an aliquot of the same cell lysates collected for the luciferase assay and measured in the same luminometer as described below.
Firefly luciferase assay. The firefly luciferase assay is based upon a commercial (Promega, Madison, Wis.) long term “glow” type of bioluminescence assay. Briefly, activation of luciferin results in the formation of an enzyme-bound luciferyl adenylate (luciferyl-AMP). […]

[5] = system: skeletal α-actin promoter; assay: Skeletal α-actin promoter-reporter (luciferase) activity in transfected cardiomyocytes exposed to agonists; assay type: cell-based, rat
Procedure: as §1
Transient transfection. […] The optimal values including DNA concentration, lipofectamine concentration, and time length for tansfection were determined prior to experiments carried out in this study. […]
as §2

[6] = system: neonatal rat cardiomyocytes; assay: AngII- and PE-induced hypertrophy of primary cardiomyocytes (anti-α-actinin staining, cell size and sarcomeric assembly); assay type: cell-based; conditions: 72 hr; AngII 10 nM or PE 10 μM
Procedure: A-F, Primary rat cardiocytes in serum-free medium were stimulated with AngII (10 nM) or PE (10 μm) for 72 hours. Cells were then fixed and stained with anti-α-actinin antibody to reveal sarcomeres and Hoechst stain to reveal nuclei.
To visualize primary cardiomyocytes and their sarcomeric organization, anti-α-actinin mouse monoclonal antibody was used (Sigma). […] Cells were washed in 1×phosphate-buffered saline (PBS), fixed in 3.7% paraformaldehyde for 5 minutes, washed three times with 1×PBS and then pre-blocked in 1×PBS containing 2% horse serum, 2% BSA, and 0.1% non-ionic detergent NP40 for 30 minutes. Anti-α-actinin antibody was added at a dilution of 1:800 in fresh preblock solution and incubated for an additional 30 minutes. Subsequently, the cells were washed three times in 1×PBS with 0.1% NP40. Anti-mouse TRITC-conjugated secondary antibody was then added at a dilution of 1:400 for 30 minutes in pre-block solution and the cells were again washed three times in 1×PBS containing 0.1% NP40. Nuclear staining for DNA was performed with 0.5 μg/ml of bisbenzimide in PBS for 15 minutes followed by three rinses with PBS.

[7] = system: tetracycline-controlled transactivator (tTA); assay: tTA-dependent luciferase target gene expression in primary rat cardiomyocytes; assay type: cell-based
Procedure: Cardiomyocytes were co-transfected with tTA expression plasmid pUHD15-1 and either a tTA-dependent luciferase construct pUHC13-3 or empty vector as control. 16 hours after transfection, cells were incubated in either medium without doxcycline (DOX) or medium with doxcycline. […] Open circles, empty vector, no DOX; filled circles, empty vector, plus DOX; open triangles, pUHC 13-3, no DOX; filled triangles, pUHC13-3, plus DOX. FIG. 11B is a bar graph depicting the ability of tTA to stimulate transcription of the target gene and the inhibitory effect of doxcycline 12 hours after transfection.
Tetracycline-controlled transactivator (tTA) expression plasmid pUHD15-1 encodes chimeric protein tTA under the control of the human cytomegalovirus (CMV) promoter and enhancer. tTA consists of amino acid residues 1-207 from the tetR protein and residues 363-490 from VP16 (Gossen and Bujard (1992) Proc. Natl. Acad. Sci. USA 89:5547-5551.
Plasmid pUHD10-3 contains a chimeric tet operon/CMV minimal promoter upstream of multiple cloning sites (Bujard, 1996). pUHC13-3 is a firefly luciferase reporter gene expression plasmid driven by the chimeric tet operon/CMV minimal promoter (Gossen and Bujard (1992).
The firefly luciferase gene as a reporter gene was under control of the chimeric tet operon/CMV minimal promoter in pUHC13-3. Transient transfections were carried out as described in Example 3. […]

[8] = DOB 10 μM, added 24 hours after transfection
[9] = PE exposure, construct includes PERE motif

Compound: CC(C)NCC(O)COc1cccc2ccccc12 (stereo not drawn) [PROP, propanolol]
effect on DOB- or ISO-induced CaMKII autonomous activity ([1]; PROP 20 μM added prior to agonist): blocked activation

Compound: C[C@H]1c2cccc(O)c2C(O)=C2C(=O)[C@]3(O)C(O)=C(C(N)=O)C(=O)[C@@H](N(C)C)[C@@H]3[C@@H](O)[C@@H]21 [doxcycline]
transactivation of the tTA-dependent target gene ([7]; 1 μg/ml after transfection, tTA-transfected cells): markedly repressed | low level expression of the target gene caused by the treatment itself ([7]; 1 μg/ml, 12 hour post-transfection): ~4 fold

Compound: TGF-β1: type β-transforming growth factor
induction of cardiac α-actin promoter-reporter activity over control cells [2]: 700%

Now from value to compound, other results behind:

CaMKII autonomous activation, increase over unstimulated heart tissues [1]: ~170%
Compound: CC(CCc1ccc(O)cc1)NCCc1ccc(O)c(O)c1 (stereo not drawn) [DOB, dobutamine]
decrease of cardiac α-actin promoter-reporter activity [2, 8]: approximately 50% | decline of ANF mRNA compared to control values ([3]; 24 hours after DOB exposure): 75% | abundance of ANF message relative to control cultures ([3]; within 16 hours of DOB exposure, serum-free medium): about half | decrease of ANF promoter-reporter activity [4, 8]: approximately 50% | decrease of skeletal α-actin promoter-reporter activity [5, 8]: approximately 50%

CaMKII autonomous activation, increase over unstimulated heart tissues [1]: ~170%
Compound: CC(C)NCC(O)c1ccc(O)c(O)c1 (stereo not drawn) [ISO, isoproterenol]

activation of ANF50 (NP338) nested deletion promoter-reporter construct ([4]; PE exposure, construct has lost PERE motif): not | activation of ANF135 (NP325) nested deletion promoter-reporter construct [4, 9]: activated | activation of ANF700 (NP337) nested deletion promoter-reporter construct [4, 9]: activated
Compound: CNC[C@H](O)c1cccc(O)c1 [PE, phenylephrine]
induction of cardiac α-actin promoter-reporter activity over control cells [2]: not significantly stimulated | cardiomyocyte size and sarcomeric assembly after exposure to agonist [6]: dramatic increase in size and sarcomeric assembly | transactivation of ANF reporter activity over control cells ([4]; PE 100 μM): 200% | transactivation of skeletal α-actin reporter activity over control cells ([5]; PE 100 μM): 200%

— patent publication US6673768B1, “Transgenic animal models for cardiac hypertrophy and methods of use thereof (treating)” (Board of Regents, The University of Texas System, priority 1997, dated 2004)
